Measured values as given in the NIST ThermoML archive (doi:10.1016/j.jct.2019.105878).

Assay: osmotic coefficient (dimensionless); mn = molality of the nth substance listed, in mol/kg
Details: 298.15 K, 97.5 kPa, Liquid, vapour pressure osmometry

O=Cc1ccc(CO)o1 [5-(hydroxymethyl)furan-2-carbaldehyde] + O
Details | osmotic coefficient
m1 = 0.496 | 0.85
m1 = 0.991 | 0.73
m1 = 1.483 | 0.635
m1 = 1.98 | 0.572
m1 = 2.473 | 0.521
m1 = 2.967 | 0.462
m1 = 3.459 | 0.442
m1 = 3.95 | 0.396
m1 = 4.444 | 0.378
m1 = 4.935 | 0.37
